# ChEMBL document CHEMBL3244339, “Antitumor 1-(X-aryl)-3,3-dialkyltriazenes. 1. Quantitative structure-activity relationships vs. L1210 leukemia in mice” (J Med Chem, 1978)
# Calls of active or inactive are those of the source. The rule behind the calls is not given here.
# Experiments:
# L1210 [1] = assay: Antitumor activity against mouse L1210 cells allografted in mouse assessed as increase of host lifespan; type: functional
# [2] = Distribution coefficient, log P of the compound; type: physicochemical; details: octanol/water
# Mus musculus = organism: Mus musculus; assay: Toxicity in mouse L1210 cells allografted mouse assessed as mortality up to 5 days; type: organism-based; details: l1210, 120 h
# [3] = Octanol-saturated water partition coefficient, log D of the compound; type: physicochemical
# L1210 [4] = assay: Antitumor activity against mouse L1210 cells allografted in mouse assessed as increase of host lifespan of 110 days; type: functional, cell-based
# [5] = Aqueous phase distribution coefficient, log P of the compound in 0.01 M NaOH; type: physicochemical
SMILES,log(1/C) (L1210 [1]),further results
CNC(=O)c1ccccc1/N=N/N(C)C,3.25,logP [2]: 1.83
CN(Cc1ccccc1)/N=N/c1nc[nH]c1C(N)=O,3.43,logP ([2]; read-out: logP): 1.54
C=CCN(C)/N=N/c1n[nH]cc1C(N)=O,3.77,–
CN(C)/N=N/c1nc(Cc2ccccc2)[nH]c1C(N)=O,2.89,–
CCCCN(C)/N=N/c1ccc([N+](=O)[O-])cc1C(N)=O,3.08,–
CN(C)/N=N/c1ccc(C(F)(F)F)cc1,–,Activity (Mus musculus): Toxic
CN(C)/N=N/c1cccc(C(N)=O)c1,3.8,–
CN(C)/N=N/c1c(F)cccc1F,3.63,–
CN(Cc1ccccc1)/N=N/c1ccccc1,3.03,–
CCCCN(C)/N=N/c1ccccc1C(=O)O,3.15,–
CC(=O)N(C)/N=N/c1ccc(C)cc1,2.78,logD [3]: 3.13; logP ([2]; read-out: logP): 3.13
COc1ccc(C(N)=O)cc1/N=N/N(C)C,3.95,logP [2]: 0.44
CN(C)/N=N/c1ccc(C(N)=O)cc1C(N)=O,3.27,–
CN(C)/N=N/c1ccc([N+](=O)[O-])cc1C(=O)O,–,Activity (L1210 [4]): inactive
CN(C)/N=N/c1ccccc1C(=O)NCC(N)=O,3.25,logP [2]: 1.17
CN(C)/N=N/c1ccccc1CO,–,logP [5]: 1.73; Activity (Mus musculus): Toxic
CC(C)CN(C)/N=N/c1nc[nH]c1C(N)=O,3.51,–
CCCCN(C)/N=N/c1ccccc1C(N)=O,3.1,–
CCCCCCCCN(C)/N=N/c1ccc(C(N)=O)cc1,2.84,–
CN(C)/N=N/c1ccc(S(=O)(=O)Nc2ncccn2)cc1,3.74,–
COC(=O)c1[nH]cnc1/N=N/N(C)C,3.86,–
CN(/N=N/c1ccc(C(N)=O)cc1)c1cccs1,2.9,–

SMILES,log(1/C) (L1210 [1]),further results
CN(C)/N=N/c1ccccc1C(F)(F)F,–,Activity (L1210 [4]): inactive
COc1ccc(/N=N/N(C)C(=O)c2ccccc2)cc1,3.05,–
CN(C)/N=N/c1ccc(C(=O)O)cc1,3.22,–
CC(C)Cc1nc(/N=N/N(C)C)c(C(N)=O)[nH]1,3.53,–
CN(C)/N=N/c1ccccc1C(=O)NCC#N,3.22,logP [2]: 1.79
COC(=O)c1ccccc1/N=N/N(C)CC(C)C,3.12,–
CN(CCO)/N=N/c1ccccc1Cl,–,Activity (Mus musculus): Toxic
C=CCN(CC=C)/N=N/c1ccc(C(N)=O)cc1,–,Activity (Mus musculus): Toxic
COc1ccc(/N=N/N(C)C)c(C(=O)O)c1,–,Activity (Mus musculus): Toxic
CN(C)/N=N/c1ccccc1I,–,Activity (L1210 [4]): inactive; logP [5]: 3.5
CN(C)/N=N/c1ccccc1C(=O)NC#N,–,logD [3]: 0.8
COc1ccc(CN(C)/N=N/c2ccc(C#N)cc2)cc1,2.72,–
CCCN(C)/N=N/c1ccccc1C(=O)O,3.74,logP [5]: -1.66
CCOC(=O)c1[nH]c(-c2ccccc2)nc1/N=N/N(C)C,3.48,–
CN(/N=N/c1nc[nH]c1C(N)=O)c1cccs1,3.87,–
CN(/N=N/c1ccccc1C(=O)NN)C1CCCCC1,2.99,–
CN(C)/N=N/c1ccc(Cl)cc1C(=O)O,–,Activity (L1210 [4]): inactive
CN(C)/N=N/c1ccccc1C(=O)O,3.64,–
C=CCN(C)/N=N/c1ccc(NC(N)=O)cc1,3.77,–
CN(C)/N=N/c1ccc(S(N)(=O)=O)cc1,3.6,logP [2]: 0.98
COC(=O)c1n[nH]c(C(C)C)c1/N=N/N(C)C,3.3,–
CN(C)/N=N/c1ccc(C(N)=O)cc1,3.51,–

SMILES,log(1/C) (L1210 [1]),further results
Cc1cccc(/N=N/N(C)C)c1,3.4,–
CN(C)/N=N/c1ccc(C#N)cc1,–,logD [3]: 2.39; Activity (Mus musculus): Toxic
CCCN(C)/N=N/c1n[nH]cc1C(N)=O,3.7,–
CN(CCO)/N=N/c1n[nH]cc1C(N)=O,3.1,–
CCCCN(C)/N=N/c1n[nH]cc1C(N)=O,3.81,–
CONC(=O)c1ccccc1/N=N/N(C)C,–,Activity (Mus musculus): Toxic
CN(C)/N=N/c1ccccc1[N+](=O)[O-],3.28,–
CCN(C)/N=N/c1ccc(C(N)=O)cc1,3.66,–
CN(CCc1ccccc1)/N=N/c1n[nH]cc1C(N)=O,3.52,–
CCOC(=O)c1[nH]cnc1/N=N/N(C)C,3.98,logP [2]: 0.44
CCOC(=O)c1[nH]cnc1/N=N/N(C)CCO,3.38,–
CCCCCCCCN(C)/N=N/c1ccc(Cl)cc1C(=O)O,3.14,–
CN(CC#N)/N=N/c1ccc(C(N)=O)cc1,–,Activity (Mus musculus): Toxic
CN(C)/N=N/c1ccc(S(N)(=O)=O)cc1C(N)=O,3.32,–
CN(CCO)/N=N/c1ccccc1C(N)=O,3.07,–
CN(C)/N=N/c1ccc(C#N)cc1C(N)=O,3.46,–
CN(C)/N=N/c1cccnc1,3.46,–
CON(C)/N=N/c1ccc(C(N)=O)cc1,–,Activity (Mus musculus): Toxic
CN(C)/N=N/c1ccccc1C#N,–,Activity (L1210 [4]): inactive
COC(=O)c1ccc(/N=N/N(C)C)cc1,3.2,–
